# Measurements taken from KR20050021629A, “신규한 벤조플루오렌 디온계 화합물” (학교법인 이화학당, priority 2003, dated 2005).
# Where two headings read alike, the source gives them in different places.
# Key:
# [1] = test system: human ovarian cancer cell line (SK-OV-3) (인간 난소암 세포주(SK-OV-3)); settings: literature (Y. S. Kim et al. 2003); cited from earlier work
# [2] = test system: human lung cancer cell line A549 (인간 폐암 세포주 (A549)); experiment: SRB cytotoxicity test, human lung cancer cell line A549; format: cell-based
# [3] = test system: human ovarian cancer cell line SK-OV-3 (인간 난소암 세포주 (SK-OV-3)); experiment: SRB cytotoxicity test, human ovarian cancer cell line SK-OV-3; format: cell-based
# [4] = test system: human melanoma cell line SK-MEL-2 (인간 흑색종암 세포주 (SK-MEL-2)); experiment: SRB cytotoxicity test, human melanoma cell line SK-MEL-2; format: cell-based
# [5] = test system: human central nervous system cancer cell line XF498 (인간 중추 신경계암 세포주 (XF498)); experiment: SRB cytotoxicity test, human central nervous system cancer cell line XF498; format: cell-based
# [6] = test system: human colon cancer cell line HCT15 (인간 결장암 세포주 (HCT15)); experiment: SRB cytotoxicity test, human colon cancer cell line HCT15; format: cell-based
# [7] = A549, SRB assay, 48 h incubation, read-out: ED50 (the source's name)
# [8] = SK-OV-3, SRB assay, 48 h incubation, read-out: ED50 (the source's name)
# [9] = SK-MEL-2, SRB assay, 48 h incubation, read-out: ED50 (the source's name)
# [10] = XF498, XF 498, SRB assay, 48 h incubation, read-out: ED50 (the source's name)
# [11] = HCT 15, SRB assay, 48 h incubation, read-out: ED50 (the source's name)
Compound,anticancer effect compared with doxorubicin [1],"IC50 ([2]; A549, 48 h, read-out: ED50) [µg/mL]","IC50 ([3]; SK-OV-3, 48 h, read-out: ED50) [µg/mL]","IC50 ([4]; SK-MEL-2, 48 h, read-out: ED50) [µg/mL]","IC50 ([5]; XF498, 48 h, read-out: ED50) [µg/mL]","IC50 ([6]; HCT-15, 48 h, read-out: ED50) [µg/mL]","IC50 [2, 7] [µg/mL]","IC50 [3, 8] [µg/mL]","IC50 [4, 9] [µg/mL]","IC50 [5, 10] [µg/mL]","IC50 [6, 11] [µg/mL]"
"2-메틸-4a,10,11-트리아자-벤조[3,2-a]플루오렌-5,6-디온",독소루비신보다 항암효과가 우수함,–,–,–,–,–,–,–,–,–,–
"COc1cccc2c1C(=O)c1c(O)c3c(c(O)c1C2=O)C[C@@](O)(C(=O)CO)C[C@@H]3O[C@H]1C[C@H](N)[C@H](O)[C@H](C)O1 [독소루비신, reference compound]",–,0.093,0.21,0.11,0.187,0.19,–,–,–,–,–
"Cc1cccn2c3c(nc12)-c1ncccc1C(=O)C3=O [실시예 1, 10-메틸-1,6b,11-트리아자-벤조[3,2-a]플루오렌-5,6-디온]",–,–,–,–,–,–,0.054,0.073,0.11,0.033,0.044
"Cc1cccc2nc3c(n12)C(=O)C(=O)c1cccnc1-3 [실시예 2, 7-메틸-1,6b,11-트리아자-벤조[3,2-a]플루오렌-5,6-디온]",–,–,–,–,–,–,0.23,1.04,1.08,0.2,0.71
"O=C1C(=O)c2c(nc3ccc(Cl)cn23)-c2ncccc21 [실시예 3, 8-클로로-1,6b,11-트리아자-벤조[3,2-a]플루오렌-5,6-디온]",–,–,–,–,–,–,0.59,0.55,0.65,0.45,0.99
"O=C1C(=O)c2c(nc3ncccn23)-c2ncccc21 [실시예 4, 1,6b,10,11-테트라아자-벤조[a]플루오렌-5,6-디온]",–,–,–,–,–,–,0.12,0.061,0.034,0.081,0.077
"O=C1C(=O)c2c(nc3cnccn23)-c2ncccc21 [실시예 5, 1,6b,9,11-테트라아자-벤조[a]플루오렌-5,6-디온]",–,–,–,–,–,–,0.051,0.02,0.032,0.03,0.047
"O=C1C(=O)c2c(nc3ccccn23)-c2cnncc21 [실시예 6, 2,3,6b,11-테트라아자-벤조[a]플루오렌-5,6-디온]",–,–,–,–,–,–,0.022,0.2,0.12,0.12,0.1
"Cc1ccc2nc3c(n2c1)C(=O)C(=O)c1cnncc1-3 [실시예 7, 8-메틸-2,3,6b,11-테트라아자-벤조[a]플루오렌-5,6-디온]",–,–,–,–,–,–,3.54,1.01,1.77,1.77,0.92
"COc1cc(C2c3cc4c(cc3C(OC3OC5COC(C)OC5C(O)C3O)C3COC(=O)C23)OCO4)cc(OC)c1O (stereo not shown) [에토포시드, reference compound]",–,0.577,1.84,1.37,1.43,0.97,–,–,–,–,–
